pIC50: −log10 of the molar value.
These compounds were tested against T1, human Arginine Vasopressin Receptor 1b (AVPR1b) (Homo sapiens, UniProt P47901) (assay: Vasopressin V1b receptor antagonist assay (FLIPR calcium, CHO-AVPR1b cells)).
T1 construct: expressed in transfected cells; host or cells: CHO (CHO-AVPR1b, kept under G418 selection)
T1 sequence (P47901 1-424): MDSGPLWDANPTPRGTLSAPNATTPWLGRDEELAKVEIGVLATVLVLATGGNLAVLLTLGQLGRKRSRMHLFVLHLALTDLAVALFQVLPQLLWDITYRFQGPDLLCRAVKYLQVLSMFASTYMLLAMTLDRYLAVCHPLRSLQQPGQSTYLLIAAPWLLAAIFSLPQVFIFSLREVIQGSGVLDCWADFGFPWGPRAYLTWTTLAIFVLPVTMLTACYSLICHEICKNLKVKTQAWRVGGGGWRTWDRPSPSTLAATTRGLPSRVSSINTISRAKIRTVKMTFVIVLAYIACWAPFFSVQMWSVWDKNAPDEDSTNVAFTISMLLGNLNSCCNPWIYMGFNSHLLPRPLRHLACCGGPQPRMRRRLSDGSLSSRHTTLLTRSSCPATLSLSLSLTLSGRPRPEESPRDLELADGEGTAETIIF
Type: cell-based
Method: The purpose of the assay was to determine the inhibitory effect of synthesized compounds on the Vasopressin V1b receptor. The assay was performed in Chinese Hamster Ovary (CHO) cells expressing the human Arginine Vasopressin Receptor 1b (AVPR1b). Arginine Vasopressin (AVP) evokes an increase in intracellular calcium in CHO-AVPR1b cells which is measured in a fluorescence assay on the FLIPR^TETRA using calcium sensitive dyes. Test compounds were assessed for their ability to affect the magnitude of the response to AVP, with antagonists showing a concentration-dependent reduction in the AVP-mediated fluorescence.
CHO-AVPR1b cells were maintained in routine culture in T175 Flasks at 37° C., 5% CO2. The growth medium consisted of Ham's F12 media supplemented with 10% v/v fetal bovine serum, 1× non-essential amino acids, and 0.4 mg/ml Geneticin G418.
Cells were harvested from T175 flasks when they were 80-90% confluent by first washing the cell monolayer with PBS and then dissociated using trypsin 0.05%/EDTA (3 mL for a T175 Flask). The flasks were incubated at room temperature until the cells detached. To the cell suspension, 10 ml of growth media was added and the cell density determined using the Vi-Cell automated cell counter. The cells were spun at 1000 rpm for 3 minutes, then the supernatant was carefully removed and discarded. The cell pellet was re-suspended at 6.0e^5 cells/ml in growth media. 25 μL of cells in growth media was dispensed into each well (15,000 cells per well) of a poly-D-lysine coated black, clear bottomed, 384-well plate. The plates were incubated at 37° C., 5% CO2 overnight.
At the start of each assay day, the potency of AVP was assessed and an EC80 concentration determined for subsequent compound profiling. Assays were performed using a two-step addition protocol on the FLIPR^TETRA; first addition of 5 μl of control or test compound at 10× final in assay buffer with 15 min incubation at 37° C., 5% CO2 followed by 10 μl of AVP at 6× final concentration in assay buffer. Changes in fluorescence were monitored for 3 min after both additions on the FLIPR^TETRA using 470-495 nm excitation and 515-575 nm emission wavelengths. The assay buffer consisted of HBSS (+Ca/+Mg) supplemented with 20 mM HEPES, and for the preparation of the AVP agonist only, 0.1% w/v bovine serum albumin. The assay was initiated by the removal of growth media from the cells and replacement with 45 μl of Calcium-6 dye (Molecular Devices) prepared at 1× in assay buffer. Cells were loaded with dye for 60-90 min at 37° C., 5% CO2 before initiation of the FLIPR^TETRA protocol. […] For compound profiling, test compounds were first serially diluted in DMSO (10-point curve, 1:3 dilutions) then diluted 33.3-fold in assay buffer prior to addition to the dye loaded cells on the FLIPR^TETRA. At the end of the incubation period 10 μl of AVP in assay buffer containing 0.1% BSA was added at the previously determined EC80 concentration.
In-plate controls for the assay included a Nelivaptan concentration-response curve as the reference V1b antagonist and an AVP concentration-response curve to confirm the reproducibility of the EC80 used for the compound challenge.

pIC50, ≤ 6.00:
CC1CN(C(=O)N2CC3(C2)CN(c2ccc(F)cn2)C3)c2ccc(F)cc2O1 (single isomer, unassigned) [9-4-B]
Cc1cnc(N2CC3(CN(C(=O)N4c5ccc(Cl)cc5OCC4C)C3)C2)nc1 (centres unmarked) [20-13]
CC1COc2cc(Cl)c(F)cc2N1C(=O)N1CC2(C1)CN(c1cccnn1)C2 (centres unmarked) [19-4]
CC1COc2cc(Cl)ccc2N1C(=O)N1CC2(C1)CN(c1cccnn1)C2 (centres unmarked) [9-1, (7-chloro-3-methyl-2,3-dihydro-4H-benzo[b][1,4]oxazin-4-yl)(6-(pyridazin-3-yl)-2,6-diazaspiro[3.3]heptan-2-yl)methanone]
O=C(N1CC2(C1)CN(c1ccc(F)cn1)C2)N1CCC(O)c2cc(Cl)ccc21 (single isomer, unassigned) [13-1-A]
Cc1ccnc(N2CC3(CN(C(=O)N4c5ccc(Cl)cc5OCC4C)C3)C2)n1 (centres unmarked) [20-12]
O=C(N1CC2(C1)CN(c1noc3ccccc13)C2)N1CCOc2cc(Cl)ccc21 [4-1, (6-(benzo[d]isoxazol-3-yl)-2,6-diazaspiro[3.3]heptan-2-yl)(7-chloro-2,3-dihydro-4H-benzo[b][1,4]oxazin-4-yl)methanone]
O=C(N1CC2(C1)CN(c1ccc(F)cn1)C2)N1CCC(F)(F)c2cc(Cl)ccc21 [17-1, (6-chloro-4,4-difluoro-3,4-dihydroquinolin-1(2H)-yl)(6-(5-fluoropyridin-2-yl)-2,6-diazaspiro[3.3]heptan-2-yl)methanone]
CC1COc2cc(F)c(F)cc2N1C(=O)N1CC2(C1)CN(c1cccnn1)C2 (single isomer, unassigned) [19-3-B]
O=C(N1CC2(C1)CN(c1ncccc1F)C2)N1CCc2cc(Cl)ccc21 [1-76]
CC1COc2cc(Cl)ccc2N1C(=O)N1CC2(C1)CN(c1noc3cccnc13)C2 (centres unmarked) [18-3]
CC1COc2cc(Cl)ccc2N1C(=O)N1CC2(C1)CN(c1cccnc1)C2 (single isomer, unassigned) [20-1-B]
Cc1nc(N2CC3(CN(C(=O)N4c5ccc(Cl)cc5OCC4C)C3)C2)ncc1F (single isomer, unassigned) [20-7-B]
O=C(N1CC2(C1)CN(c1ccccn1)C2)N1CCOc2cc(Cl)ccc21 [8-2]
CC1COc2cc(F)ccc2N1C(=O)N1CC2(C1)CN(c1ccc(F)cn1)C2 (single isomer, unassigned) [12-1-B]
CC1CN(C(=O)N2CC3(C2)CN(c2ccc(F)cn2)C3)c2ccc(Cl)cc2O1 (centres unmarked) [9-3]
Cc1cncc(N2CC3(CN(C(=O)N4c5ccc(F)cc5OCC4C)C3)C2)n1 (single isomer, unassigned) [20-2-B]
CC1COc2cc(Cl)c(F)cc2N1C(=O)N1CC2(C1)CN(c1cccnc1)C2 (centres unmarked) [19-6]
O=C(N1CC2(C1)CN(c1cnccn1)C2)N1CCC(O)c2cc(Cl)ccc21 (centres unmarked) [13-3]
O=C(N1CC2(C1)CN(c1cccc(F)n1)C2)N1CCc2cc(Cl)ccc21 [1-78]
O=C(N1CC2(C1)CN(c1ccc(F)cn1)C2)N1CCC(O)c2cc(Cl)ccc21 (centres unmarked) [13-1, (6-chloro-4-hydroxy-3,4-dihydroquinolin-1(2H)-yl)(6-(5-fluoropyridin-2-yl)-2,6-diazaspiro[3.3]heptan-2-yl)methanone]
CC1COc2cc(Cl)ccc2N1C(=O)N1CC2(C1)CN(c1ncccn1)C2 (single isomer, unassigned) [1-83-B, (7-chloro-3-methyl-2,3-dihydro-4H-benzo[b][1,4]oxazin-4-yl)(6-(pyrimidin-2-yl)-2,6-diazaspiro[3.3]heptan-2-yl)methanone]
O=C(N1CC2(C1)CN(c1cnccn1)C2)N1CCOCc2cc(Cl)ccc21 [8-13]
CC1COc2cc(F)ccc2N1C(=O)N1CC2(C1)CN(c1noc3ccccc13)C2 (single isomer, unassigned) [4-3-B]
CC1COc2cc(Cl)ccc2N1C(=O)N1CC2(C1)CN(c1cccnn1)C2 (single isomer, unassigned) [9-1-B]
O=C(N1CC2(C1)CN(c1cc(F)ccn1)C2)N1CCc2cc(Cl)ccc21 [1-79]
Cc1nccnc1N1CC2(CN(C(=O)N3c4ccc(Cl)cc4OCC3C)C2)C1 (centres unmarked) [20-10]
O=C(N1CC2(C1)CN(c1cnccn1)C2)N1CCc2cc(Cl)ccc21 [8-14]
CC1Cc2cc(Cl)ccc2N1C(=O)N1CC2(C1)CN(c1ccc(F)cn1)C2 (centres unmarked) [8-16]
O=C(N1CC2(C1)CN(c1ccccn1)C2)N1CCC(O)c2cc(Cl)ccc21 (single isomer, unassigned) [13-2-A]
O=C(N1CC2(C1)CN(c1ccc(F)cn1)C2)N1CCOc2cc(F)c(F)cc21 [9-6]
O=C(N1CC2(C1)CN(c1ccccn1)C2)N1CCOCc2cc(Cl)ccc21 [8-12]

From US12152038B2, “Vasopressin receptor antagonists and products and methods related thereto” (Neumora Therapeutics, Inc., priority 2017, dated 2024)
